Consider eight molecules from patent US11339183B2, “Phosphate and phosphonate derivatives of 7-amino-5-thio-thiazolo[4,5-d]pyrimidines and their use in treating conditions associated with elevated levels of CX3CR1 and/or CX3CL1” (KANCERA AB, priority 2018, dated 2022).

As a reminder, the solubility is the concentration that dissolves in the medium under given conditions. For orientation: AUC means the area under the concentration-time curve, a measure of exposure. A higher AUC goes with more exposure.

Data set [1] can be described thus: Comparative kinetic solubility in phosphate buffer pH 7.4 (HPLC-UV). Format: physicochemical. To be noted: aqueous buffer, kinetic from dmso stock, nominal 250 μM in 50 mM phosphate buffer pH 7.4, agitated 1 hour, filtered. How it is done:
Samples of the compound of Example 1 and (2R)-2-[(2-amino-5-{[(1S)-1-phenylethyl]sulfanyl}-[1,3] thiazolo[4,5-d]pyrimidin-7-yl)amino]-4-methylpentan-1-ol. HCl (compound A) were diluted to a nominal concentration of 250 μM in 50 mM phosphate buffer pH 7.4 then agitated for 1 hour and filtered.
Standard solutions of the two compounds at concentrations of 25 and 250 μM in 50:50 acetontrile:water were prepared.
The solutions were then analysed by reverse phase HPLC with UV-detection, and solubility was determined by the ratio of the sample peaks to the standard curve.

The nature of data set [2]: Plasma concentration (AUC of plasma Compound A) in mice after intravenous and peroral administration. Format: in vivo. The settings on record: blood 0.083-24 hours; for AUC: male, CD1, mouse, plasma. The procedure:
A peroral dosing solution of Compound A (12 mg/mL) in 30% HP-β-CD in 10 mM Na2PO4 and an intravenous dosing solution of Compound A (2.5 mg/mL) in 30% HP-β-CD in 10 mM Na2PO4 in DPBS were prepared. The intravenous dosing solution was administered to male CD1 mice (weight 28-30 g) via intravenous injection (25 mg/kg) and the peroral dosing solution was administered to male CD1 mice (weight 28-30 g) via oral gavage (120 mg/kg).
Blood was collected from the animals at time points of 0.083, 0.25, 0.5, 1, 2, 4, 6, 12 and 24 hours and analysed for blood plasma concentration, and the data generated were used to calculate the area under the curve (AUC) values shown in Table 5.
A peroral dosing solution of Compound A HCl salt (12 mg/mL) in 30% HP-β-CD in 10 mM Na2PO4 and an intravenous dosing solution of Compound A HCl salt (2.5 mg/mL) in 30% HP-β-CD in 10 mM Na2PO4 in DPBS were prepared. The intravenous dosing solution was administered to male CD1 mice (weight 28-30 g) via intravenous injection (25 mg/kg) and the peroral dosing solution was administered to male CD1 mice (weight 28-30 g) via oral gavage (125 mg/kg).
A peroral dosing solution of Example 1 disodium salt in water (15.4 mg/mL) at a pH of 7.18 and an intravenous dosing solution of Example 1 disodium salt in water (6.4 mg/mL) at a pH of 7.11 were prepared by dissolving Example 1 diammonium salt in water and adjusting the pH with 0.1M NaOH solution. The intravenous dosing solution was administered to male CD1 mice (weight 24-25 g) via tail injection (32 mg/kg) and the peroral dosing solution was administered to male CD1 mice (weight 24-25 g) via oral gavage (154 mg/kg).

Data set [3] can be described thus: Comparative stability of solutions on long-term storage at room temperature (HPLC-MS). Format: physicochemical. To be noted: for Degradation products observed on storage in aqueous solution: HPLC-MS, storage at room temperature; for Example 1 % area: aqueous solution (MilliQ water) 1.7 mg/mL; for Aqueous solubility (in words): dissolving in pure water / need for co-solvents; for Stability of aqueous formulations to storage (in words): room temperature; for Compound A % area: water + 20% MeOH, 1.75 mg/mL.

Data set [4] in a line: Further stability studies: aqueous solutions stored 60 days at room temperature and/or 40° C. (HPLC-MS). Format: physicochemical. How it is done: Aqueous solutions of several of the example compounds were prepared at concentrations of 1.2 mg/mL (10 mg/mL for Example 1 (no salt)) according to the following procedures. • i) Examples 1 b, 2h and 3 (diammonium salts) were dissolved in pure water. • ii) Examples 1d (diammonium salt) and 1n (monoammonium salt) were suspended in water and Na2HPO3 was added until all of the compound was in solution. • iii) Examples 1q, 4f an 4g (no salts) were dissolved in water with added DMSO (100 μL) and (2-hydroxypropyl)-β-cyclodextrin was added until all of the compound was in solution.
The stability of the compounds to long-term storage in aqueous solution at room temperature and/or 40° C. was then assessed by analysis of the solution by HPLC-MS after 60 days.

Where [5] appears, read: aqueous solution 1.2 mg/mL, 40° C., 1d, 1n with Na2HPO3, 1q, 4f, 4g with DMSO and (2-hydroxypropyl)-β-cyclodextrin.
The mark [6] stands for this setting: aqueous solution 1.2 mg/mL, room temperature, 1d, 1n with Na2HPO3, 1q, 4f, 4g with DMSO and (2-hydroxypropyl)-β-cyclodextrin.

Where a name gives a salt, the structure may show the parent alone.

On to `CC(C)C[C@H](CO)Nc1nc(S[C@@H](C)c2ccccc2)nc2nc(N)sc12` [Compound A •HCl, (2R)-2-[(2-amino-5-{[(1S)-1-phenylethyl]sulfanyl}-[1,3]thiazolo[4,5-d]pyrimidin-7-yl)amino]-4-methylpentan-1-ol. HCl], for which the solubility at 1 h in data set [1] turned out to be 5 µM. Also, the AUC stood at 50.1 µM·h in data set [2] (iv, 25 mg/kg) and 170 µM·h in data set [2] (po, 125 mg/kg, PO (oral gavage), 125 mg/kg (284 mol/kg)).

`CC(C)C[C@H](COP(=O)(O)O)Nc1nc(S[C@@H](C)c2ccccc2)nc2nc(N)sc12` [Example 1, (2R)-2-[(2-Amino-5-{[(1S)-1-phenylethyl]sulfanyl}[1,3]thiazolo[4,5-d]pyrimidin-7-yl)amino]-4-methylpentyl dihydrogen phosphate] came in with a solubility at 1 h in data set [1] of 118 µM. Besides, in data set [3], the “Degradation products observed on storage in aqueous solution” value is given as “not observed”. Further, the “Example 1 % area” value in data set [3] (RT, 0 days of storage) came to 99.6 % area; in data set [3] (RT, 4 days of storage), 99.6 % area; in data set [3] (RT, 13 days of storage), 99.6 % area; in data set [3] (RT, 20 days of storage), 99.6 % area; in data set [3] (RT, 40 days of storage), 99.6 % area. The “Aqueous solubility (in words)” value in data set [3] was “improved aqueous solubility (no co-solvents required)”. In addition, in data set [3], the “Stability of aqueous formulations to storage (in words)” value is on record as “unexpectedly pronounced stability over Compound A”. The “% Area by HPLC (60 days)” value in data set [4] (Example 1 (no salt), aqueous solution 10 mg/mL, 40° C.) came to 100 % Area.

Consider `CC(C)C[C@H](CO)Nc1nc(S[C@@H](C)c2ccc(Cl)cn2)nc2c1sc(=O)n2COP(=O)(O)O` [Example 2h, [5-{[(1S)-1-(5-Chloropyridin-2-yl)ethyl]sulfanyl}-7-{[(1R)-1-(hydroxymethyl)-3-methylbutyl]amino}-2-oxo[1,3]thiazolo[4,5-d]pyrimidin-3(2H)-yl]methyl dihydrogen phosphate], for which the “% Area by HPLC (60 days)” value in data set [4] (setting [5]) was determined as 82.2 % Area; in data set [4] (setting [6]), 92.3 % Area.

As for `CC(C)C[C@H](CO)Nc1nc(S[C@@H](C)c2ccccc2)nc2nc(N)sc12` [Compound A, (2R)-2-[(2-amino-5-{[(1S)-1-phenylethyl]thio}[1,3]thiazolo[4,5-d]pyrimidin-7-yl)amino]-4-methylpentan-1-ol], the “Compound A remaining %” value in data set [3] (1.18 mg/mL in water, polyethylene glycol 24% (v/v), RT, 0 days) is listed as 98.5%; in data set [3] (1.18 mg/mL in water, polyethylene glycol 24% (v/v), RT, 3 days), 97.7%; in data set [3] (1.18 mg/mL in water, polyethylene glycol 24% (v/v), RT, 56 days), 28%; in data set [3] (1.22 mg/mL in water, polyethylene glycol 24% (v/v), RT, 0 days), 98.6%; in data set [3] (1.22 mg/mL in water, polyethylene glycol 24% (v/v), RT, 3 days), 98.0%; in data set [3] (1.22 mg/mL in water, polyethylene glycol 24% (v/v), RT, 56 days), 31%. In addition, the “Compound A remaining %” value came to 98.5% in data set [3] (2.25 mg/mL in water, polyethylene glycol 26% (v/v), RT, 0 days); 97.7% in data set [3] (2.25 mg/mL in water, polyethylene glycol 26% (v/v), RT, 3 days); 35% in data set [3] (2.25 mg/mL in water, polyethylene glycol 26% (v/v), RT, 56 days); 98.4% in data set [3] (3.2 mg/mL in water, polyethylene glycol 28% (v/v), ethanol 0, RT, 0 days); 88.1% in data set [3] (3.2 mg/mL in water, polyethylene glycol 28% (v/v), ethanol 0, RT, 14 days); 60.7% in data set [3] (3.2 mg/mL in water, polyethylene glycol 28% (v/v), ethanol 0, RT, 70 days). The “Compound A remaining %” value in data set [3] (4.0 mg/mL in water, polyethylene glycol 25% (v/v), ethanol 3% (v/v), RT, 0 days) was 98.4%; in data set [3] (4.0 mg/mL in water, polyethylene glycol 25% (v/v), ethanol 3% (v/v), RT, 14 days), 92.3%; in data set [3] (4.0 mg/mL in water, polyethylene glycol 25% (v/v), ethanol 3% (v/v), RT, 70 days), 75.1%. The “Degradation products observed on storage in aqueous solution” value in data set [3] is “the debenzylated thiol and the corresponding disulfide together with phenyl ethanol and minor amounts of styrene”. Also, the “Aqueous solubility (in words)” value in data set [3] is “not possible to dissolve”. Also, the “Stability of aqueous formulations to storage (in words)” value in data set [3] is listed as “unstable to storage at room temperature”. Moreover, the “Compound A % area” value in data set [3] (RT, 0 days) amounted to 98.4% area; in data set [3] (RT, 4 days) it was 96.7% area. The “Plasma Compound A AUC” value in data set [2] (male CD1 mice, IV, 25 mg/kg) was determined as 45.92 µM·h. In data set [2] (po, 120 mg/kg, PO (oral gavage), 120 mg/kg (297 mol/kg)), the AUC stood at 92.6 µM·h.

Regarding `CC(C)C[C@H](COP(=O)(O)O)Nc1nc(SC(C)c2ccc(Cl)cn2)nc2nc(N)sc12` (stereo partly drawn) [Example 1d, (2R)-2-[(2-Amino-5-{[1-(5-chloropyridin-2-yl)ethyl]sulfanyl}[1,3]thiazolo[4,5-d]pyrimidin-7-yl)amino]-4-methylpentyl dihydrogen phosphate], the “% Area by HPLC (60 days)” value in data set [4] (setting [5]) was 99.7 % Area; in data set [4] (setting [6]) it was 98.0 % Area.

Regarding `CC(C)C[C@H](COP(=O)(O)O)Nc1nc(S[C@@H](C)c2ccc(Cl)cn2)nc2[nH]c(=O)sc12` [Example 3, (2R)-2-[(5-{[(1S)-1-(5-chloropyridin-2-yl)ethyl]sulfanyl}-2-oxo-2,3-dihydro[1,3]thiazolo[4,5-d]pyrimidin-7-yl)amino]-4-methylpentyl dihydrogen phosphate], the “% Area by HPLC (60 days)” value is listed as 100 % Area in data set [4] (setting [5]) and 99.6 % Area in data set [4] (setting [6]).

As to `CC(C)C[C@H](COP(=O)(O)OC(C)C)Nc1nc(S[C@@H](C)c2ccccc2)nc2nc(N)sc12` [Example 1n, (2R)-2-[(2-Amino-5-{[(1S)-1-phenylethyl]sulfanyl}[1,3]thiazolo[4,5-d]pyrimidin-7-yl)amino]-4-methylpentyl 1-methylethyl hydrogen phosphate], the results for the “% Area by HPLC (60 days)” value in data set [4] (setting [5]) and in data set [4] (setting [6]) were 100 % Area and 98.2 % Area, respectively.

For the molecule `CC(C)C[C@H](COP(=O)(O)O)Nc1nc(SC(C)c2ccccc2F)nc2nc(N)sc12` (stereo partly drawn) [Example 1b, (2R)-2-[(2-Amino-5-{[1-(2-fluorophenyl)ethyl]sulfanyl}[1,3]thiazolo[4,5-d]pyrimidin-7-yl)amino]-4-methylpentyl dihydrogen phosphate], the “% Area by HPLC (60 days)” value in data set [4] (setting [5]) and in data set [4] (setting [6]) was 100 % Area in each case.
